Earlier results on four molecules are cited in patent US20220378773A1, “METHODS FOR TREATING LEUKEMIA AND USE OF A LEUKEMIC STEM CELL SIGNATURE TO PREDICT CLINICAL SENSITIVITY TO THERAPIES” (CELGENE CORPORATION, priority 2019, published 2022).

The conditions of data set [1]: relative humidity increased from about 0% to about 90% RH; cited from earlier work.
Data set [2] has as its system acute myeloid leukemia (AML) at relapse. The settings on record: administered alone; cited from earlier work.

Take `O=C1CCC(N2Cc3cc(CNC(=O)C(F)(F)c4ccc(Cl)cc4)ccc3C2=O)C(=O)N1` (stereo not shown) [Form A, 2-(4-chlorophenyl)-N-((2-(2,6-dioxopiperidin-3-yl)-1-oxoisoindolin-5-yl)methyl)-2,2-difluoroacetamide]: the water uptake result in data set [1] was “about 1.2 % w/w”. Consider `O=C1CCC(N2Cc3cc(CNC(=O)C(F)(F)c4ccc(Cl)cc4)ccc3C2=O)C(=O)N1` (stereo not shown) [Form B, 2-(4-chlorophenyl)-N-((2-(2,6-dioxopiperidin-3-yl)-1-oxoisoindolin-5-yl)methyl)-2,2-difluoroacetamide], for which the water uptake result in data set [1] is listed as “about 1.4 % w/w”.

As for `O=C1CCC(N2Cc3cc(CNC(=O)C(F)(F)c4ccc(Cl)cc4)ccc3C2=O)C(=O)N1` (stereo not shown) [Form C, 2-(4-chlorophenyl)-N-((2-(2,6-dioxopiperidin-3-yl)-1-oxoisoindolin-5-yl)methyl)-2,2-difluoroacetamide], the water uptake entry in data set [1] is recorded as “about 0.6 % w/w”. Take “CT-011: anti-PD-1 antibody, a humanized antibody”: in data set [2], the “response in treating AML at relapse” value was “failed to show response”.
